We go through two compounds from US12349973B2 (priority 2019, dated 2025).

SMILES strings stand for the structures.

Data set [1] relates to accommodation control system / ciliary body muscarinic receptors. The conditions noted are these: in vivo.
In data set [2] the test system is pupil light response / muscarinic receptors within the iris. On the set-up: species or system human. As to conditions: in vivo.
The subject of data set [3] is muscarinic receptors within the eye. As to conditions: in vivo; cited from earlier work.
For data set [4], the target named is human iris muscarinic receptors. As to conditions: cited from earlier work.

As for `CN(C)CCOC(=O)C(c1ccccc1)C1(O)CCCC1` (stereo not drawn) [cyclopentolate], the ability to accommodate result in data set [1] (human) is listed as “maintained the ability to accommodate sufficiently to read at 33 cm”. Moreover, in data set [1], the “mean increase in the AC/A ratio over baseline” value is given as 173% and the “receptoral blockade suggested by AC/A increase” value is 42%.

In the case of `CN1[C@@H]2CC[C@H]1C[C@@H](OC(=O)C(CO)c1ccccc1)C2` (stereo partly drawn) [atropine], in data set [2], the “baseline difference in pupil size” value came to 0.6 mm, the “estimated level of receptor blockade 1-(V400post/V400pre)” value is reported as 35% and the “peak difference in pupil constriction (light response)” value was found to be 1.6 mm. In addition, in data set [3], the duration of effects is 6 to 12 days; the “duration of pupil dilatation and paralysis of accommodation” value is recorded as “up to 7 days”. In addition, in data set [4], the “apparent dissociation constant KA” value was 0.4 to 0.7 nM.
